In US20180028520A1, “METHODS AND PHARMACEUTICAL COMPOSITIONS FOR TREATMENT OF AMYOTROPHIC LATERAL SCLEROSIS” (priority 2014, published 2018):

Columns and labels:
[1] = system: brain slices derived from a mouse model of tauopathy; details: inhibition of PLDs; cited from earlier work
ALS iPS-MNs = experiment: AIS (axon initial segment) length by ankyrin G immunostaining; type: cell-based, human; details: data not shown

SMILES | effect on insoluble tau aggregates [1] | effect on shortening of the AIS (ALS iPS-MNs)
O=C(NCCN1CCC(n2c(=O)[nH]c3ccccc32)CC1)c1cc2cc(F)ccc2[nH]1 [FIPI, 5-fluoro-2-indolyl des-chlorohalopemide] | increased insoluble tau aggregates | 
C=C(C)[C@H]1CN[C@H](C(=O)O)[C@H]1CC(=O)O [kainate, kainic acid] |  | further exacerbated
